From the NIST ThermoML archive (doi:10.1016/j.jct.2009.11.014)
Numbers after ± are expanded uncertainties.

Conditions: Liquid; for viscosity: Stony Brook Scientific falling needle HPHTV-100 viscometer; for mass density: vibrating tube

CCCCCCCC[n+]1ccn(C)c1.F[B-](F)(F)F [1-methyl-3-octylimidazolium tetrafluoroborate]
Conditions | mass density [kg/m3] | viscosity [mPa·s]
303.74 K, 13240 kPa | – | 258.3 ± 28
303.8 K, 2750 kPa | – | 227.3 ± 25
303.82 K, 14800 kPa | – | 261.8 ± 31
303.85 K, 4160 kPa | – | 230.6 ± 27
303.85 K, 5600 kPa | – | 233.6 ± 28
303.91 K, 8710 kPa | – | 241.6 ± 26
303.95 K, 11220 kPa | – | 250.7 ± 28
303.96 K, 160 kPa | – | 219.1 ± 26
304.01 K, 2040 kPa | – | 222.9 ± 26
304.03 K, 1190 kPa | – | 221.6 ± 24
304.05 K, 6140 kPa | – | 232.1 ± 28
304.05 K, 7390 kPa | – | 238.6 ± 26
308.15 K, 100 kPa | 1097.49 ± 0.95 | –
308.15 K, 2000 kPa | 1098.5 ± 0.94 | –
308.15 K, 4000 kPa | 1099.56 ± 0.94 | –
308.15 K, 6000 kPa | 1100.61 ± 0.94 | –
308.15 K, 8000 kPa | 1101.64 ± 0.94 | –
308.15 K, 10000 kPa | 1102.66 ± 0.94 | –
308.15 K, 12000 kPa | 1103.66 ± 0.94 | –
308.15 K, 14000 kPa | 1104.66 ± 0.94 | –
308.15 K, 20000 kPa | 1107.61 ± 0.93 | –
308.15 K, 30000 kPa | 1112.34 ± 0.93 | –
308.15 K, 40000 kPa | 1116.89 ± 0.93 | –
308.15 K, 50000 kPa | 1121.29 ± 0.93 | –
308.15 K, 60000 kPa | 1125.53 ± 0.93 | –
312.95 K, 650 kPa | – | 137.4 ± 15
312.95 K, 1600 kPa | – | 139.3 ± 16
313.05 K, 130 kPa | – | 137.3 ± 16
313.05 K, 2670 kPa | – | 141.1 ± 16
313.05 K, 4260 kPa | – | 142.8 ± 16
313.05 K, 6130 kPa | – | 145.7 ± 16
313.05 K, 8180 kPa | – | 150.2 ± 17
313.05 K, 10130 kPa | – | 152.7 ± 16
313.05 K, 12200 kPa | – | 157.1 ± 17
313.05 K, 14260 kPa | – | 161 ± 18
313.15 K, 100 kPa | 1094.13 ± 0.94 | –
313.15 K, 2000 kPa | 1095.13 ± 0.94 | –
313.15 K, 4000 kPa | 1096.26 ± 0.94 | –
313.15 K, 6000 kPa | 1097.28 ± 0.94 | –
313.15 K, 8000 kPa | 1098.3 ± 0.94 | –
313.15 K, 10000 kPa | 1099.33 ± 0.93 | –
313.15 K, 12000 kPa | 1100.39 ± 0.93 | –
313.15 K, 14000 kPa | 1101.41 ± 0.93 | –
313.15 K, 20000 kPa | 1104.39 ± 0.93 | –
313.15 K, 30000 kPa | 1109.19 ± 0.93 | –
313.15 K, 40000 kPa | 1113.81 ± 0.93 | –
313.15 K, 50000 kPa | 1118.25 ± 0.93 | –
313.15 K, 60000 kPa | 1122.52 ± 0.93 | –
318.15 K, 100 kPa | 1090.78 ± 0.94 | –
318.15 K, 2000 kPa | 1091.83 ± 0.93 | –
318.15 K, 4000 kPa | 1092.91 ± 0.94 | –
318.15 K, 6000 kPa | 1094 ± 0.93 | –
318.15 K, 8000 kPa | 1095.03 ± 0.93 | –
318.15 K, 10000 kPa | 1096.1 ± 0.93 | –
318.15 K, 12000 kPa | 1097.15 ± 0.93 | –
318.15 K, 14000 kPa | 1098.18 ± 0.93 | –
318.15 K, 20000 kPa | 1101.2 ± 0.93 | –
318.15 K, 30000 kPa | 1106.06 ± 0.93 | –
318.15 K, 40000 kPa | 1110.72 ± 0.93 | –
318.15 K, 50000 kPa | 1115.21 ± 0.93 | –
318.15 K, 60000 kPa | 1119.54 ± 0.93 | –
323.15 K, 100 kPa | 1087.45 ± 0.93 | –
323.15 K, 2000 kPa | 1088.5 ± 0.94 | –
323.15 K, 4000 kPa | 1089.6 ± 0.94 | –
323.15 K, 6000 kPa | 1090.68 ± 0.94 | –
323.15 K, 8000 kPa | 1091.76 ± 0.93 | –
323.15 K, 10000 kPa | 1092.8 ± 0.93 | –
323.15 K, 12000 kPa | 1093.87 ± 0.94 | –
323.15 K, 14000 kPa | 1094.9 ± 0.94 | –
323.15 K, 20000 kPa | 1097.97 ± 0.94 | –
323.15 K, 30000 kPa | 1102.88 ± 0.94 | –
323.15 K, 40000 kPa | 1107.6 ± 0.94 | –
323.15 K, 50000 kPa | 1112.12 ± 0.94 | –
323.15 K, 60000 kPa | 1116.48 ± 0.94 | –
323.43 K, 140 kPa | – | 83.7 ± 9.8
323.46 K, 680 kPa | – | 84.3 ± 9.8
323.55 K, 1710 kPa | – | 85 ± 9.9
323.56 K, 13080 kPa | – | 96.3 ± 11
323.58 K, 14330 kPa | – | 97.4 ± 12
323.63 K, 9640 kPa | – | 92.7 ± 11
323.65 K, 130 kPa | – | 83.6 ± 9.8
323.65 K, 2760 kPa | – | 85.9 ± 10
323.65 K, 6190 kPa | – | 88.2 ± 10
323.65 K, 11060 kPa | – | 93.2 ± 11
323.68 K, 4240 kPa | – | 86.8 ± 10
323.73 K, 8190 kPa | – | 90.2 ± 11
323.75 K, 10400 kPa | – | 92.1 ± 11
323.75 K, 12340 kPa | – | 94 ± 11
